Consider ten molecules from US20020182736A1, “Methods to measure lipid antioxidant activity” (TRUSTEES OF TUFTS COLLEGE, priority 2001, published 2002).

As usually defined, the IC50 is the point on the concentration scale where inhibition reaches its midpoint.

In series [1] the test system is lipid plasma compartment oxidation. Put plainly: Lipid plasma compartment oxidation, BODIPY 581/591 green fluorescence. Conditions: 2 mM initiator, 37° C.
Procedure: Plasma oxidation was measured fluorometrically using two different fluorescent probes: DCFH and BODIPY. DCFH-DA and BODIPY stock solutions were prepared in EtOH and dimethylsulfoxide, respectively, stored under nitrogen at −20° C. and used within two months. The final plasma dilution was 1:5 (v/v).
In the experiments using β-carotene, to avoid the filtering effect due to the carotenoid, the oxidation product of BODIPY was also detected at λex=520 and at λem-540 nm. The fluorescence measurements were carried out using a Perkin Elmer spectrofluorometer (model 650-10s) with 1 cm path length fluorescence cuvettes.
Briefly, β-carotene (dissolved in stabilized THF, 10 mg/ml) or α-tocopherol (4.3 mg/ml in EtOH) were added to plasma to reach a final concentration of 50 μM; the samples were then vortexed for 30 sec and incubated at 37±1° C. for 1 to 6 hr under nitrogen. […] Controls were prepared in the same way using solvent only.
The effect of adding the membrane soluble antioxidants, α-tocopherol (in EtOH) and β-carotene (in THF), pre-incubated with plasma, was studied. […] Values are mean±SD of five independent experiments. Statistical analysis: one-way ANOVA with Tukey's post test; *p<0.05, **p<0.01.
To monitor the aqueous phase oxidizability, AAPH was used as a hydrophilic radical generator and coupled to DCFH was used as the indicator.
Series [2] relates to oxidation of lipid compartment of plasma. The series is described as follows: Lipid compartment oxidizability of plasma with BHT standard (MeO-AMVN, BODIPY 581/591). Conditions: for Green Fluorescence, 25 μM: equals Plasma minus Plasma + BHT. The procedure: In order to standardize the method to determine the lipophilic antioxidant capacity, butylated hydroxytoluene (BHT), a phenolic synthetic antioxidant, was chosen as an internal standard. Polyenes and certain foods were packaged with added BHT to protect against oxidation. Plasma was incubated with BODIPY 581/591 in the presence and absence of BHT (25 & 50 µM) at 37° C. for 30 min, and determined for oxidizability in the lipid compartment. There was no significant difference among incubation times of 30 min, 1 hr and 2 hr, on the incorporation of BHT in the lipid compartment of plasma (FIG. 14). […] The concentration of BHT may also be reduced to a level sufficient to produce a detectable signal.

Series [3] has as its system aqueous peroxyl radicals generated by AAPH in human plasma. The series is described as follows: Consumption of endogenous plasma antioxidants induced by AAPH (HPLC). Conditions: for percentage remaining / Residual Amount (%): AAPH 20 mM for 120 min, no EGCG (control); for time to complete consumption in plasma: 20 mM AAPH, 37° C. The procedure: In a second similar experiment, other antioxidants were studied. […] Echinenone in ethanol was added as an internal standard.

The conditions of series [4]: E(EGCG-O., H+/EGCG-OH); E(A−., H+/AH−); cited from earlier work.
Series [5] in a line: ESR quenching of α-tocopheroxyl radical generated from α-tocopherol and DPPH. Conditions: unit inferred; read-out: IC50 quenching of α-TOC-O. ESR signal. The series is classed as biochemical. The procedure:
α-TOC+DPPH→α-TOC-O.+DPPHH [1]
For sample preparation, α-tocopherol (900 μM) and DPPH (600 μM) in ethanol solution were mixed for 20 sec and 50 μl of the reaction mixture transferred into a capillary ESR tube. (−)-Epigallocatechin-(3)-gallate (EGCG) was added to the mixture immediately after DPPH decolorization (30 sec after DPPH addition).

The subject of series [6] is lipid peroxyl radicals generated by MeO-AMVN in human plasma. The series is described as follows: Consumption of endogenous plasma antioxidants induced by MeO-AMVN (HPLC). Conditions: for time to total disappearance in plasma: human plasma 1:5 with PBS, 37° C.
Procedure: After an overnight fast (10-12 h), blood from two healthy donors was collected in ethylenediaminetetraacetic acid (EDTA)-containing tubes. In order to reduce the variability of different donors, blood samples from these two subjects were collected weekly for the duration of the experiment. Immediately after collection, the samples were placed on ice and protected from light. Plasma was obtained by centrifugation at 800 g for 20 min at 4° C. and immediately used for the in vitro studies.
In the presence of 10-20 mM of AAPH, the flux of aqueous radicals calculated on the basis of the known rate of free radical generation from AAPH at 37° C.
In order to obtain homogeneous incorporation, the lipid soluble initiators were added slowly to the samples with a micro-syringe (10 μl) with stirring. The samples were then vortexed for 10 sec and incubated at 37±1° C. under aerobic conditions.
In a second similar experiment, other antioxidants were studied. […] A 100 μl aliquot of the reaction mixture was extracted for β-carotene and α-tocopherol analysis. Echinenone in ethanol was added as an internal standard. The mixture was extracted with CHCl3:CH3OH (2:1 v/v) containing 0.2% BHT and hexane containing 0.1% BHT, dried under nitrogen, redissolved in ethanol, and injected into an HPLC system with a C30 column (3 μm, 150×4.6 mm, YMC, Wilmington, N.C.).
For water-soluble antioxidant measurement, the mixtures were immediately deproteinized with perchloric acid (250 mM).
Results are expressed as percentages with respect to control samples prepared without the azo-compounds.
Setting [7] is: Subject 1, 2 hr incubation w/1 mM MeO-AMVN.
Setting [8] is: Subject 1, 3 hr incubation w/1 mM MeO-AMVN.
[9] abbreviates: Subject 2, 2 hr incubation w/1 mM MeO-AMVN.
Where [10] appears, read: Subject 2, 3 hr incubation w/1 mM MeO-AMVN.
Setting [11] is: Subject 3, 2 hr incubation w/1 mM MeO-AMVN.
The mark [12] stands for this setting: Subject 3, 3 hr incubation w/1 mM MeO-AMVN.

Entries after “also recorded” stand apart in the source; their conditions may differ. A value given as a limit tells only on which side of the number the result lay.

For `CC(C)CC(C)(C#N)N=NC(C)(C#N)CC(C)C` (stereo not shown) [AMVN, 2,2′-azobis(2,4-dimethylvaleronitrile)], the “change in BODIPY fluorescence in plasma” value in series [1] is recorded as “no observed changes; also recorded: No change”.
`Cc1cc(C(C)(C)C)c(O)c(C(C)(C)C)c1` [BHT, butylated hydroxytoluene]: in series [2] (BHT added to plasma), the “protection of oxidation of lipid compartment” value was 78%. Also, the “Green Fluorescence, Plasma + BHT” value is on record as 107 ± 1.4 in series [2] (setting [7]); 217 ± 4.0 in series [2] (setting [8]); 123 ± 7.3 in series [2] (setting [9]); 223 ± 8.9 in series [2] (setting [10]); 142 ± 8.0 in series [2] (setting [11]); 250 ± 13.3 in series [2] (setting [12]). In addition, the “Green Fluorescence, 25 μM” value in series [2] (setting [7]) was 382; in series [2] (setting [8]) it was 806; in series [2] (setting [9]) it was 347; in series [2] (setting [10]), 650; in series [2] (setting [11]) it was 245; in series [2] (setting [12]), 551.
Consider `CC1=C(/C=C/C(C)=C/C=C/C(C)=C/C=C/C=C(C)/C=C/C=C(C)/C=C/C2=C(C)C[C@@H](O)CC2(C)C)C(C)(C)CCC1` [Cryptoxanthin, cryptoxanthin], for which the results for the “percentage remaining / Residual Amount (%)” value in series [3] and in series [3] (listed as cryptoxanthin) were 18.94 ± 3.86% and 18.94±3.86%, respectively.
For the molecule `CC1=C[C@H](O)CC(C)(C)[C@H]1/C=C/C(C)=C/C=C/C(C)=C/C=C/C=C(C)/C=C/C=C(C)/C=C/C1=C(C)C[C@@H](O)CC1(C)C` [Lutein, lutein], the “percentage remaining / Residual Amount (%)” value in series [3] stood at 12.82 ± 4.85%; in series [3] (listed as lutein), 12.82±4.85%.
Turning to `CC(C)=CCC/C(C)=C/C=C/C(C)=C/C=C/C(C)=C/C=C/C=C(C)/C=C/C=C(C)/C=C/C=C(\C)CCC=C(C)C` [Lycopene, lycopene], the “percentage remaining / Residual Amount (%)” value in series [3] stood at 8.49 ± 5.20%; in series [3] (listed as lycopene) it was 8.49±5.20%.
Take `CC1=C(/C=C/C(C)=C/C=C/C(C)=C/C=C/C=C(C)/C=C/C=C(C)/C=C/C2=C(C)C[C@@H](O)CC2(C)C)C(C)(C)C[C@H](O)C1` [Zeaxanthin, zeaxanthin]: the “percentage remaining / Residual Amount (%)” value in series [3] came to 17.50 ± 5.98%; in series [3] (listed as zeaxanthin), 17.50±5.98%.
Regarding `O=C1O[C@H]([C@@H](O)CO)C(O)=C1O` [ascorbic acid], in series [3] (human plasma 1:5 with PBS), the “time to complete consumption in plasma” value is reported as no more than 15 min. Also, the “redox potential E” value in series [4] is listed as 0.28 V. Moreover, the IC50 in series [5] was 14.2 µM. The “time to total disappearance in plasma” value in series [6] (2 mM MeO-AMVN) turned out to be 30 min.
For `O=c1[nH]c(=O)c2[nH]c(=O)[nH]c2[nH]1` [uric acid], the “time to complete consumption in plasma” value in series [3] (human plasma 1:5 with PBS) is recorded as no more than 180 min. In addition, in series [6] (2 mM MeO-AMVN), the “time to total disappearance in plasma” value worked out at 300 min.
`Cc1c(C)c2c(c(C)c1O)CC[C@@](C)(CCC[C@H](C)CCC[C@H](C)CCCC(C)C)O2` [α-tocopherol]: in series [3] (10-20 mM AAPH, human plasma 1:5 with PBS), the “time to almost complete consumption in plasma” value is no more than 30 min. Also, in series [3], the “percentage remaining / Residual Amount (%)” value came to 3.86±0.94%. For the same molecule, the “time to almost total depletion” value in series [6] (2 mM MeO-AMVN) was found to be 60 min. In addition, the “content reduced by” value in series [6] (2 mM MeO-AMVN, at 30 min) was determined as 42%. Moreover, in series [6] (control without EGCG, MeO-AMVN), the “% α-tocopherol remaining” value was determined as 16.43±1.72%.
On to `CC1=C(/C=C/C(C)=C/C=C/C(C)=C/C=C/C=C(C)/C=C/C=C(C)/C=C/C2=C(C)CCCC2(C)C)C(C)(C)CCC1` [β-Carotene, β-carotene], for which the “percentage remaining / Residual Amount (%)” value in series [3] was 28.89±6.17%.
